For one data set, the target named is T1, Na^+/H^+ exchanger (NHE) (Rattus norvegicus, UniProt P26431).
T1 construct: from tissue; host or cells: platelet-rich plasma from Wistar rat blood
The experiment in a line: NHE inhibitory effect test (swelling of rat platelets induced by sodium propionate). The format is cell-based. To be noted: for IC50: rat platelet-rich plasma, sodium propionate buffer pH 6.7, 300 μM Amiloride taken as 100% inhibition, Probit method; for NHE inhibitory activity (in words): compared with the control compound. Here is the method: The NHE inhibitory activity was measured according to the method by Scholz et al. [British Journal of Pharmacology, Vol. 109, p. 562-568 (1993)], taking the swelling of rat platelets induced by sodium propionate as an index.
Under etherization, blood was collected (8 mL) from the abdominal aorta of a Wistar rat, and 1 mL of a citrate dextrose solution as an anticoagulant was added. The blood sample was immediately centrifuged at 90×g for 10 minutes, and then the collected supernatant was taken as platelet-rich plasma. Subsequently, to 250 μL of a 140 mM sodium propionate buffer solution containing the test compound dissolved in dimethylsulfoxide (pH 6.7, final dimethylsulfoxide concentration 1%), the platelet-rich plasma prepared in the above (number of platelet; 10×10^6/50 μL) was added, and the decrease in the absorbance associated with the swelling of platelets was measured over time with a Hematracer (NKK Corp.).
The rate of decrease in the absorbance at 20 seconds after the addition of the platelet-rich plasma was taken as the NHE activity, and the inhibitory activity of the respective compounds was expressed as a relative activity, while the action obtained upon addition of 300 μM of Amiloride was taken as 100% inhibition.
In addition, the test results were obtained by calculating the concentration at which the inhibitory activity of the test compound becomes 50% (IC50 value), by a Probit method.

In data set [1] the test system is reperfusion-induced arrhythmia upon myocardial ischemia. Nature of the data set: Reperfusion-induced arrhythmia inhibitory action test. The format is in vivo, rat. To be noted: male SD rats, 3.62 mmol/L, 1 mL/kg intravenous, within 10 minutes after reperfusion. Here is the method:
Subsequently, in evaluation of the in vivo NHE inhibitory action, the effect of the test compound on reperfusion-induced arrhythmia upon myocardial ischemia was evaluated according to the method of Aihara et al. [European Journal of Pharmacology, Vol. 404, p. 221-229 (2000)]. Under anesthesia using pentobarbital sodium (60 mg/kg, intraperitoneal administration), cannulae were inserted into trachea, femoral vein and carotid artery of male SD rats ([…]) for artificial ventilation, drug administration and blood pressure measurement, respectively. The blood pressure was measured using a strain pressure amplifier via a pressure transducer, while the heart rate was measured from the blood pressure pulse wave using a cardiotachometer. Furthermore, an electrocardiogram (lead II) was measured from the electrodes attached to each four limbs. Next, under artificial ventilation, left thoracotomy was performed and a snare (5-0 nylon) was loosely placed around a blood vessel which was about 3 mm apart from the origin of the left coronary artery. Thereafter, it was confirmed that arrhythmia was not occurred for 10 minutes, and then the snare was fastened to induce local myocardial ischemia. Furthermore, after 4 minutes of myocardial ischemia, the compound was intravenously administered for 1 minute, and after 5 minutes of myocardial ischemia, the snare was loosened, then the arrhythmia occurred after reperfusion was recorded and analyzed with an arrhythmia analyzer (Softron Co., Ltd.), thereby the anti-arrhythmic action of the compound was evaluated. […] The control group was administered with physiological saline.
With regard to the ventricular fibrillation (Vf) which occurred within 10 minutes after reperfusion (in the cases of halfway death, up to the time point where cardiac arrest was confirmed), arrhythmia analysis was performed according to the Guidelines for Lambeth Convention [Cardiovascular research, Vol. 22, p. 447-455, 1988], and evaluation was made in terms of the frequency of Vf occurrence, cumulative duration time of Vf, and the mortality.
The frequency of Vf occurrence, cumulative duration of Vf, and the mortality for the respective test compounds are presented in Table 2.

Data set [2] can be described thus: Metabolic stability test in rat (generation of control compound in plasma). The format is in vivo. The note with it: male SD rats; for Plasma concentration of the control compound, after 5 min / Plasma concentration of the control compound, after 15 min / Plasma concentration of the control compound, after 30 min / Plasma concentration of the control compound, after 60 min / Plasma concentration of the control compound, after 120 min: equivalent of 1 mg/kg control compound via tail vein, LC/MS/MS; for Decomposition into the Control Compound in vivo (in words): tail vein, plasma 5-120 min. The source says: The compound represented by Formula (1) of the present invention has a structure in which the hydroxyl group on the 9-position of a 9-hydroxymethyl-cyclohepta[b]pyridine-3-carbonylguanidine derivative is converted to a specific substituent. However, if the compound is metabolized in vivo to remove the specific substituent from the compound, there may be generated the original 9-hydroxymethyl-cyclohepta[b]pyridine-3-carbonylguanidine derivative, which has toxic effects on the central nervous system. Thus, the inventive compounds as synthesized in Examples were administered in vivo to study whether the control compound, which was the corresponding 9-hydroxymethyl product, was generated.
Male SD rats (7 weeks old) were administered at 1 mg/kg (an amount calculated excluding salts) of the control compound, an equivalent amount of the Inventive Compound 2, 4, 6, 7 or 12, or Reference Compound 20, through the tail vein. After administration, about 0.2 mL of blood samples were collected after 5, 15, 30, 60 and 120 minutes, and the blood samples were centrifuged at 4° C. at a speed of rotation of 15000 for 15 minutes, thus to separate the supernatant plasma. The concentration of the control compound in the plasma was measured by LC/MS/MS. The measurement results were shown as +++ when the detected plasma concentration of the control compound is 200 ng/mL or greater; ++ for more than 100 ng/mL and less than 200 ng/mL; + for more than 20 ng/mL and less than 100 ng/mL; and − for less than 20 ng/mL or no detection.

The test system of another data set is male mice. Nature of the data set: Toxicity test with 2-days repeated intraperitoneal administration in mouse. The format is in vivo. To be noted: equivalent of 300 mg/kg control compound intraperitoneally once a day for 2 days. Here is the method: For three male mice in each group, 300 mg/kg of the Control Compound (an amount calculated excluding salts), or an equivalent amount of the Inventive Compound 2, 4, 6, 7 or 12 were intraperitoneally administered once a day for 2 days, and a histopathological tests were performed. The Control Compound, and the Inventive Compounds 2, 4 and 6 were suspended in a 0.5% tragacanth gum solution, and the Inventive Compound 7 was suspended in a 10 DMSO-containing 0.5% tragacanth gum solution, while the Inventive Compound 12 was suspended in olive oil. For the histopathological test, in order to make a more thorough examination of central nervous toxicity, the brain was examined after whole body was subjected to perfusion fixation with a 4% formaldehyde in neutral phosphate buffer as a fixing solution using a liquid transporting pump under pentobarbital sodium anesthesia.

The next data set has as its system Beagle dogs. Nature of the data set: Toxicity test after 4-days repeated intravenous administration in beagle dogs. The format is in vivo, dog. To be noted: equivalent of 30 mg/kg control compound intravenously once a day for 4 days. How it is done:
With one male and one female dogs in each group, 30 mg/kg of the Control Compound dissolved in physiological saline (an amount calculated excluding salts), or an equivalent amount of the Inventive Compound 2, 4, 6 or 8 was repeatedly administered intravenously once a day for 4 days, and general symptom observation and pharmacological histopathologic examination were performed.

Counter-ions that a name gives are not always drawn. A value given as a limit tells only on which side of the number the result lay.

T1 sequence (P26431 whole entry): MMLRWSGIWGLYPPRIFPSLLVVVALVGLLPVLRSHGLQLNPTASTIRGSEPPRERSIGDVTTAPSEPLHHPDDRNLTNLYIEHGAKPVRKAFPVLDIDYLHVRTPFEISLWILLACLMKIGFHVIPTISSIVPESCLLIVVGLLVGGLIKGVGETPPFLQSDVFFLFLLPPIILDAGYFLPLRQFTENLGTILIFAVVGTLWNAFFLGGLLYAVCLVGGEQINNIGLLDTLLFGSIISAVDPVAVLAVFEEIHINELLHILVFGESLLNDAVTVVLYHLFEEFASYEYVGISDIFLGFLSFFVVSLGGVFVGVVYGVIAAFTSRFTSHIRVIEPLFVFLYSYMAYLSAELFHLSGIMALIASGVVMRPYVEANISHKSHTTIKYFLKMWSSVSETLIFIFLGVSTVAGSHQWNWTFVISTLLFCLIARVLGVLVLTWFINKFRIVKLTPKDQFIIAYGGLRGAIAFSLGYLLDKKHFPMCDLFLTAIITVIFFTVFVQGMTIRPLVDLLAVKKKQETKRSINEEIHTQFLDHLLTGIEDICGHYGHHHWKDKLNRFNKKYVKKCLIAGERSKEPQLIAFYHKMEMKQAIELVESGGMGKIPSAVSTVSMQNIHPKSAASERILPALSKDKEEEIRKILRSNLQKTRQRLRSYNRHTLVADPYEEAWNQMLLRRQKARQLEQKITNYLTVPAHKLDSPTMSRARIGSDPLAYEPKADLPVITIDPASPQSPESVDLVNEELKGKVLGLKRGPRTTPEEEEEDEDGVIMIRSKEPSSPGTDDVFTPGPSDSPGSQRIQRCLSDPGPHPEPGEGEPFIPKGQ

As a reminder, the IC50 is the concentration at which inhibition is half-maximal. The low end stands for greater potency, the high end for weaker potency. With `Cc1nc2c(cc1C(=O)NC(=N)N)CCCCC2COC(=O)NCCOCCOS(=O)(=O)O` (stereo not drawn) [Inventive Compound 7, 2-[2-(3-Guanidinocarbonyl-2-methyl-6,7,8,9-tetrahydro-5H-cyclohepta[b]pyridin-9-ylmethyloxycarbonylamino)ethoxy]ethyl hydrogen sulfate], the IC50 on Na^+/H^+ exchanger (NHE) was 313 nM. In addition, in data set [1], the “Cumulative duration of Vf” value worked out at 15.4 s, the “Frequency of Vf occurrence” value is 40% and the Mortality came to 0%. In data set [2], the “Plasma concentration of the control compound, after 5 min” value (from here on “Plasma concentration … after 5 min”) is “− (− for less than 20 ng/mL or no detection)”; the “Plasma concentration of the control compound, after 15 min” value (“Plasma concentration … after 15 min” for short) is given as “− (− for less than 20 ng/mL or no detection)”; the “Plasma concentration of the control compound, after 30 min” value (from here on “Plasma concentration … after 30 min”) is “− (− for less than 20 ng/mL or no detection)”; the “Plasma concentration of the control compound, after 60 min” value (from here on “Plasma concentration … after 60 min”) is “− (− for less than 20 ng/mL or no detection)”. Moreover, in data set [2], the “Plasma concentration of the control compound, after 120 min” value (from here on “Plasma concentration … after 120 min”) is listed as “− (− for less than 20 ng/mL or no detection)” and the “Decomposition into the Control Compound in vivo (in words)” value (shortened to “Decomposition into the Control Compound”) was “not detected at any time point”. The “Histopathological finding in the brain” value in the data set on male mice is given as “any histologic finding which could be caused by drug administration was not recognized”.
Take `Cc1nc2c(cc1C(=O)NC(=N)N)CCCCC2COC(=O)NCCOCCOS(=O)(=O)[O-].[Na+]` (stereo not drawn) [Inventive Compound 8, 2-[2-(3-Guanidinocarbonyl-2-methyl-6,7,8,9-tetrahydro-5H-cyclohepta[b]pyridin-9-ylmethyloxycarbonylamino)ethoxy]ethyl sulfate sodium salt]: in the data set on Beagle dogs, the “General condition (symptom observation)” value is recorded as “only vomiting was recognized” and the “Pathologic examination of the brain” value is “any histologic finding which could be caused by drug administration was not recognized”.
`Cc1nc2c(cc1C(=O)NC(=N)N)CCCCC2COC(=O)NCCOCCOCCOCCOCCOCCOS(=O)(=O)[O-].[Na+]` (stereo not drawn) [Inventive Compound 10, 17-(3-Guanidinocarbonyl-2-methyl-6,7,8,9-tetrahydro-5H-cyclohepta[b]pyridin-9-ylmethyloxycarbonylamino)-3,6,9,12,15-pentaoxaheptadecan-1-yl sulfate sodium salt] yielded an IC50 against Na^+/H^+ exchanger (NHE) of 291 nM. Further, in data set [1], the “Cumulative duration of Vf” value worked out at 11.1 s, the “Frequency of Vf occurrence” value came out at 67% and the Mortality is on record as 0%.
With `Cc1nc2c(cc1C(=O)NC(=N)N)CCCCC2COC(=O)N[C@H]1CO[C@H]2[C@@H]1OC[C@H]2OS(=O)(=O)O` (stereo partly drawn) [Inventive Compound 12, 2-Deoxy-1,4:3,6-dianhydro-2-(3-guanidinocarbonyl-2-methyl-6,7,8,9-tetrahydro-5H-cyclohepta[b]pyridin-9-ylmethyloxycarbonylamino)-D-glucitol-5-yl hydrogen sulfate], the IC50 against Na^+/H^+ exchanger (NHE) was 227 nM. In data set [1], the “Cumulative duration of Vf” value was determined as 0.0 s, the “Frequency of Vf occurrence” value was found to be 0% and the Mortality was 0%. In addition, in data set [2], the “Plasma concentration … after 5 min” value is on record as “− (− for less than 20 ng/mL or no detection)”; the “Plasma concentration … after 15 min” value is on record as “− (− for less than 20 ng/mL or no detection)”; the “Plasma concentration … after 30 min” value is given as “− (− for less than 20 ng/mL or no detection)”; the “Plasma concentration … after 60 min” value is on record as “− (− for less than 20 ng/mL or no detection)”. Besides, in data set [2], the “Plasma concentration … after 120 min” value was “− (− for less than 20 ng/mL or no detection)” and the “Decomposition into the Control Compound” value was “not detected at any time point”. In addition, the “Histopathological finding in the brain” value with male mice is reported as “any histologic finding which could be caused by drug administration was not recognized”.
In the case of `Cc1nc2c(cc1C(=O)NC(=N)N)CCCCC2COP(=O)([O-])[O-].[Na+].[Na+]` (stereo not drawn) [Reference Compound 20, 3-Guanidinocarbonyl-2-methyl-6,7,8,9-tetrahydro-5H-cyclohepta[b]pyridin-9-ylmethyl phosphate disodium salt, reference compound], at Na^+/H^+ exchanger (NHE), half-maximal inhibition (IC50) was put at 662 nM. In data set [1], the “Cumulative duration of Vf” value is 46.8 s, the “Frequency of Vf occurrence” value amounted to 80% and the Mortality is given as 40%. Besides, in data set [2], the “Plasma concentration … after 5 min” value was “+++ (+++ when the detected plasma concentration of the control compound is 200 ng/mL or greater)”; the “Plasma concentration … after 15 min” value was “++ (++ for more than 100 ng/mL and less than 200 ng/mL)”; the “Plasma concentration … after 30 min” value was “+ (+ for more than 20 ng/mL and less than 100 ng/mL)”; the “Plasma concentration … after 60 min” value was “+ (+ for more than 20 ng/mL and less than 100 ng/mL)”. For the same molecule, in data set [2], the “Plasma concentration … after 120 min” value is “− (− for less than 20 ng/mL or no detection)” and the “Decomposition into the Control Compound” value is “rapidly degraded to the Control Compound”.
As for `N=C(N)NC(=O)c1cc2c(nc1COS(=O)(=O)O)CCCCC2` [Reference Compound 22, 3-Guanidinocarbonyl-6,7,8,9-tetrahydro-5H-cyclohepta[b]pyridin-2-ylmethyl hydrogen sulfate, reference compound], at Na^+/H^+ exchanger (NHE), the “NHE inhibitory activity (in words)” value was “significant lowering in the activity” and the IC50 is greater than 100000 nM.
For `Cc1nc2c(cc1C(=O)NC(=N)N)C(OS(=O)(=O)O)CCCC2` (stereo not drawn) [Reference Compound 23, 3-Guanidinocarbonyl-2-methyl-6,7,8,9-tetrahydro-5H-cyclohepta[b]pyridin-5-yl hydrogen sulfate, reference compound], on Na^+/H^+ exchanger (NHE), the “NHE inhibitory activity (in words)” value was “significant lowering in the activity” and the midpoint of inhibition, the IC50, lay at 37100 nM.
